We go through 19 compounds from US8410107B2, “N-pyridin-3-yl or N-pyrazin-2-yl carboxamides” (Hoffmann-La Roche Inc., priority 2010, dated 2013).

Usually inhibition stands for the drop in the measured response relative to a control, in per cent. As usually defined, the EC50 is the concentration needed to bring the measured effect to its halfway point.

One test deals with ABCA1 protein. Briefly: Detection of upregulation of ABCA1 protein in cells (ApoA-I binding, high content image analysis). The test is classed as cell-based. The following applies: THP-1 macrophage cells; for % increase of ABCA1 at 3 μM: 24 hrs with compound; for EC50: ABCA1 protein increasing efficacy. As for the experimental part: The ability of compounds of the invention to increase the level of ABCA1 protein is determined in replicate cultures of THP-1 macrophage cells in 96-well microplates. Cells are plated at an initial density of 100,000 cells/well in 100 μl medium and differentiated to adherent macrophages with the addition of PMA (100 nM) for 68 hrs in 10% fetal bovine serum, 3 μl/L of b-mercaptoethanol, RPMI-1640 medium. Then, cells are incubated with RPMI-1640 medium containing 1% FCS, 25 μg/ml acetylated LDL, for 24 hours at 37°. Following incubation with acetylated LDL, cells are washed twice with 50 μl PBS and incubated with 100 μl of RPMI-1640 medium containing the compound of interest solubilized in DMSO for an additional 24 hrs. The final DMSO concentration in presence of cells is maintained at 0.5%. ApoA-I binding assay using High Content Image Analysis is initiated by replacing with fresh medium, RPMI without Phenol Red, 0.2% BSA containing AlexaFluor®647 labeled ApoA-I for 2 h/37° C./5% CO2. Then, cells are fixed with 4% Formaldehyde inPBS (15 min, RT). Following Nuclei are stained with Hoechst solution (3 μM PBS) and Cytoplasm with Cell Mask Blue (2 μg/ml PBS), 15 min, RT. Finally the stained cells are fixed with a second round of formaldehyde treatment. Fixed stained cells are washed and kept in PBS at 4° C. and can be read immediately until one month after preparation.
The Alexa Fluor 647-labeled Apolipoprotein A-I (20 nM) was prepared as follows: Human recombinant Apolipoprotein A-I (ApoA-I) was exchanged to a buffer of 0.02 M NaHCO3 at pH 8.2 on an NAP desalting column (GE Healthcare) and brought to a concentration to 40 μM (1.13 mg/ml) by adjustment with the same buffer. The ApoA-I was fluorescently labeled by incubation with Alexa Fluor carboxylic acid succimidyl ester. (Alexa Fluor 647, Invitrogen A-20006) at a 2:1 molar ratio (Alexa to ApoA-I) for 1 h under shaking at RT. The remaining unconjugated label was removed by buffer exchange to 0.02M NaHCO3 at pH 8.2.
Imaging and data collection were performed on an OPERA confocal microplate imaging reader using a 20× water immersion objective and UV360 or 405 laser to identify the cell nuclei and a 635 laser to identify the fluorescent ApoA-I. Eight fields of view are captured per well. Image capture and analysis was performed with the Acapella software. Background fluorescence detected in control wells without ApoA-I was subtracted.
Using XLfit3 program (ID Business Solutions Ltd. UK), the model 205 for Dose Response One Site is used to calculate the EC50 values. The compounds of the present invention increase the level of ABCA1 protein by more than 45% at a concentration of 3 μM. […] Even more preferably, the compounds of the present invention have EC50 values in a range of 0.1 μM to 3 μM.

A further test concerns the target T1, human CB2 receptor (Homo sapiens, UniProt P34972).
T1 construct: expressed in transfected cells; host or cells: human embryonic kidney (HEK) cells, Semliki Forest Virus system, membrane preparations
In words: CB2 receptor affinity ([3H]-CP-55,940 displacement, HEK cell membranes). It counts as binding. The following applies: displacement of radioligand [3H]-CP-55,940. As for the experimental part:
The affinity of the compounds of the invention for cannabinoid CB2 receptors was determined using membrane preparations of human embryonic kidney (HEK) cells in which the human CB2 receptor is transiently transfected using a Semliki Forest Virus system in conjunction with [^3H]-CP-55,940 as radioligand. After incubation of freshly prepared cell membrane preparation with the [^3H]-ligand, with or without addition of compounds of the invention, separation of bound and free ligand was performed by filtration over glass fiber filters. Radioactivity on the filter was measured by scintillation counting.
(§1) The ability of the compounds to displace the radioligand [^3H]-CP-55,940 was measured at a concentration of 10 μM and values provided as [% inhibition @ 10 μM] both for the CB1 and CB2 receptor assay, The lower % inhibition is, the lower the likelihood of side effects based on CB1 or CB2 receptor inhibition is.

Another test concerns the target T2, human CB1 receptor (Homo sapiens, UniProt P21554).
T2 construct: expressed in transfected cells; host or cells: human embryonic kidney (HEK) cells, Semliki Forest Virus system, membrane preparations
Briefly: CB1 receptor affinity ([3H]-CP-55,940 displacement, HEK cell membranes). The test is classed as binding. The note with it: displacement of radioligand [3H]-CP-55,940. As for the experimental part:
The affinity of the compounds of the invention for cannabinoid receptors was determined using membrane preparations of human embryonic kidney (HEK) cells in which the human CB1 receptor is transiently transfected using a Semliki Forest Virus system in conjunction with [3H]-CP-55,940 as radioligand. After incubation of freshly prepared cell membrane preparation with the [^3H]-ligand, with or without addition of compounds of the invention, separation of bound and free ligand was performed by filtration over glass fiber filters. Radioactivity on the filter was measured by scintillation counting.
as §1

T1 sequence (P34972 whole entry): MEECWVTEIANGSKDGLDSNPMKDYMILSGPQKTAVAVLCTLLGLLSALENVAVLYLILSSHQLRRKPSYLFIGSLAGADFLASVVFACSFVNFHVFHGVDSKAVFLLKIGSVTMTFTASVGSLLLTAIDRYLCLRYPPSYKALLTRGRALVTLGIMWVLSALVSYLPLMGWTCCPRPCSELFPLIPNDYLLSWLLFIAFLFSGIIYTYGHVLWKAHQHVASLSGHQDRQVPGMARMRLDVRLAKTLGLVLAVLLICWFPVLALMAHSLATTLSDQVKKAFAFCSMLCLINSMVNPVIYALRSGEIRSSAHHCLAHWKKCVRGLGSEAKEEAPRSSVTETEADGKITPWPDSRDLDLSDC
T2 sequence (P21554 whole entry): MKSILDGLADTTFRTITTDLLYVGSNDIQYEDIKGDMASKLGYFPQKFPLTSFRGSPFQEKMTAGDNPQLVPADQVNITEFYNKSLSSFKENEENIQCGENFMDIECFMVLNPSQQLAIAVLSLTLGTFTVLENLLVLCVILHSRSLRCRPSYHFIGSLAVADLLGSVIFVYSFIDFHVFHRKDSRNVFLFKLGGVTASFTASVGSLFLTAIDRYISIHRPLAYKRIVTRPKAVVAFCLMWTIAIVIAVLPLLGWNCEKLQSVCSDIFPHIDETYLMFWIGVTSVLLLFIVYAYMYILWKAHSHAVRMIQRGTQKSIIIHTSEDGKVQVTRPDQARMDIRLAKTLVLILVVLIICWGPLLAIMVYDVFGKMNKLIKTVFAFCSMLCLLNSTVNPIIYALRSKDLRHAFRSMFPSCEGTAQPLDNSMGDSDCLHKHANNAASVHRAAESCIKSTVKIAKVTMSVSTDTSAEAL

`O=C(Nc1cnc(OCC(F)(F)F)c(-c2ccc(Cl)cc2)c1)[C@H]1CCCO1` (racemic) [Example 70, (RS)-N-(5-(4-chlorophenyl)-6-(2,2,2-trifluoroethoxy)pyridin-3-yl)tetrahydrofuran-2-carboxamide]: in the test with ABCA1 protein, the “% increase of ABCA1 at 3 μM” value is >45% @ 3 μM. The values for the inhibition at 10 µM on human CB2 receptor and at human CB1 receptor were 15% and 49%, respectively.

As to `O=C(Nc1cnc(OCC(F)(F)F)c(-c2ccc(Cl)cc2)c1)[C@H]1CCOC1` (racemic) [Example 71, (SR)-N-(5-(4-chlorophenyl)-6-(2,2,2-trifluoroethoxy)pyridin-3-yl)-tetrahydrofuran-3-carboxamide], the “% increase of ABCA1 at 3 μM” value in the test on ABCA1 protein is on record as >45% @ 3 μM. Also, the inhibition at 10 µM was 4% at human CB2 receptor and 41% on human CB1 receptor.

Regarding `CCCCC(=O)Nc1cnc(OCC(F)(F)F)c(-c2ccc(Cl)cc2)c1` [Example 1, pentanoic acid[5-(4-chloro-phenyl)-6-(2,2,2-trifluoro-ethoxy)-pyridin-3-yl]-amide], the “% increase of ABCA1 at 3 μM” value in the test on ABCA1 protein was >45% @ 3 μM. Further, the results for the inhibition at 10 µM on human CB2 receptor and at human CB1 receptor were 9.2% and 45%, respectively.

As for `O=C(Nc1cnc(OCC(F)(F)F)c(-c2ccc(Cl)cc2)c1)c1ccccc1` [Example 2, N-[5-(4-chloro-phenyl)-6-(2,2,2-trifluoro-ethoxy)-pyridin-3-yl]-benzamide], the EC50 in the test on ABCA1 protein turned out to be 2.69 µM. In addition, the values for the inhibition at 10 µM at human CB2 receptor and at human CB1 receptor were 4.9% and 33%, respectively.

`O=C(Nc1cnc(OCC(F)(F)F)c(-c2ccc(Cl)cc2)c1)c1cccnc1` [Example 3, N-[5-(4-chloro-phenyl)-6-(2,2,2-trifluoro-ethoxy)-pyridin-3-yl]-nicotinamide] came in with an EC50 in the test on ABCA1 protein of 2.28 µM. In addition, the figures for the inhibition at 10 µM on human CB2 receptor and on human CB1 receptor were 8% and 29%, respectively.

For `O=C(Nc1cnc(OCC(F)(F)F)c(-c2ccc(Cl)cc2)c1)c1ccncc1` [Example 4, N-[5-(4-chloro-phenyl)-6-(2,2,2-trifluoro-ethoxy)-pyridin-3-yl]-isonicotinamide], the “% increase of ABCA1 at 3 μM” value in the test with ABCA1 protein is >45% @ 3 μM. For the same compound, the inhibition at 10 µM at human CB2 receptor worked out at 1.9%; at human CB1 receptor it was 36%.

Turning to `CC(=O)Nc1cnc(OCC(F)(F)F)c(-c2ccc(Cl)cc2)c1` [Example 5, N-[5-(4-chloro-phenyl)-6-(2,2,2-trifluoro-ethoxy)-pyridin-3-yl]-acetamide], in the test on ABCA1 protein, the “% increase of ABCA1 at 3 μM” value was >45% @ 3 μM. Moreover, the inhibition at 10 µM was -5.4% at human CB2 receptor and 19% at human CB1 receptor.

Regarding `CCCC(=O)Nc1cnc(OCC(F)(F)F)c(-c2ccc(Cl)cc2)c1` [Example 6, N-[5-(4-Chloro-phenyl)-6-(2,2,2-trifluoro-ethoxy)-pyridin-3-yl]-butyramide], the “% increase of ABCA1 at 3 μM” value in the test with ABCA1 protein is listed as >45% @ 3 μM. Further, the inhibition at 10 µM at human CB2 receptor was 11%; at human CB1 receptor it was 47%.

For the compound `O=C(Nc1cnc(OCC(F)(F)F)c(-c2ccc(Cl)cc2)c1)c1ccccn1` [Example 7, pyridine-2-carboxylic acid[5-(4-chloro-phenyl)-6-(2,2,2-trifluoro-ethoxy)-pyridin-3-yl]-amide], the “% increase of ABCA1 at 3 μM” value with ABCA1 protein was >45% @ 3 μM. The inhibition at 10 µM on human CB2 receptor came to 1.2%; on human CB1 receptor, 13%.

The compound `O=C(Nc1cnc(OCC2CC2)c(-c2ccc(Cl)cc2)c1)c1ccccc1` [Example 8, N-[5-(4-chloro-phenyl)-6-cyclopropylmethoxy-pyridin-3-yl]-benzamide] showed an EC50 in the test with ABCA1 protein of 2.77 µM. Moreover, the inhibition at 10 µM at human CB2 receptor amounted to 15%; on human CB1 receptor, 52%.

Consider `CC(=O)Nc1cnc(OCC2CC2)c(-c2ccc(Cl)cc2)c1` [Example 9, N-[5-(4-chloro-phenyl)-6-cyclopropylmethoxy-pyridin-3-yl]-acetamide], for which the “% increase of ABCA1 at 3 μM” value in the test with ABCA1 protein is given as >45% @ 3 μM. The inhibition at 10 µM is 9.6% on human CB2 receptor and 24% at human CB1 receptor.

Take `O=C(Nc1cnc(OCC2CC2)c(-c2ccc(Cl)cc2)c1)c1cccnc1` [Example 10, N-[5-(4-chloro-phenyl)-6-cyclopropylmethoxy-pyridin-3-yl]-nicotinamide]: a half-maximal response in the test on ABCA1 protein (EC50) required 6.51 µM. The inhibition at 10 µM came out at 28% on human CB2 receptor and 36% at human CB1 receptor.

As to `O=C(Nc1cnc(OCC2CC2)c(-c2ccc(Cl)cc2)c1)c1ccncc1` [Example 11, N-[5-(4-chloro-phenyl)-6-cyclopropylmethoxy-pyridin-3-yl]-isonicotinamide], the “% increase of ABCA1 at 3 μM” value with ABCA1 protein is >45% @ 3 μM. Further, the results for the inhibition at 10 µM on human CB2 receptor and at human CB1 receptor were -1.2% and 25%, respectively.

Regarding `O=C(Nc1cnc(OCC(F)(F)F)c(-c2ccc(Cl)cc2)c1)c1cnccn1` [Example 12, pyrazine-2-carboxylic acid[5-(4-chloro-phenyl)-6-(2,2,2-trifluoro-ethoxy)-pyridin-3-yl]-amide], the “% increase of ABCA1 at 3 μM” value with ABCA1 protein is on record as >45% @ 3 μM. Further, the inhibition at 10 µM was 4% at human CB2 receptor and 22% on human CB1 receptor.

In the case of `Cc1cc(C(=O)Nc2cnc(OCC(F)(F)F)c(-c3ccc(Cl)cc3)c2)n(C)n1` [Example 13, 2,5-dimethyl-2H-pyrazole-3-carboxylic acid[5-(4-chloro-phenyl)-6-(2,2,2-trifluoro-ethoxy)-pyridin-3-yl]-amide], the “% increase of ABCA1 at 3 μM” value with ABCA1 protein was >45% @ 3 μM. The inhibition at 10 µM amounted to 3% on human CB2 receptor and 16% on human CB1 receptor.

As for `Cc1nocc1C(=O)Nc1cnc(OCC(F)(F)F)c(-c2ccc(Cl)cc2)c1` [Example 14, 3-methyl-isoxazole-4-carboxylic acid[5-(4-chloro-phenyl)-6-(2,2,2-trifluoro-ethoxy)-pyridin-3-yl]-amide], the “% increase of ABCA1 at 3 μM” value in the test with ABCA1 protein is >45% @ 3 μM. For the same compound, the figures for the inhibition at 10 µM at human CB2 receptor and on human CB1 receptor were 10% and 38%, respectively.

On to `Cn1ccc(C(=O)Nc2cnc(OCC(F)(F)F)c(-c3ccc(Cl)cc3)c2)n1` [Example 15, 1-methyl-1H-pyrazole-3-carboxylic acid[5-(4-chloro-phenyl)-6-(2,2,2-trifluoro-ethoxy)-pyridin-3-yl]-amide], for which the “% increase of ABCA1 at 3 μM” value in the test on ABCA1 protein is given as >45% @ 3 μM. The inhibition at 10 µM on human CB2 receptor turned out to be 2%; on human CB1 receptor, 27%.

With `Cc1cc(C(=O)Nc2cnc(OCC(F)(F)F)c(-c3ccc(Cl)cc3)c2)no1` [Example 16, 5-methyl-3-isoxazolecarboxylic acid[5-(4-chloro-phenyl)-6-(2,2,2-trifluoro-ethoxy)-pyridin-3-yl]-amide], it took 6.05 µM to reach a half-maximal effect in the test on ABCA1 protein (EC50). In addition, the figures for the inhibition at 10 µM on human CB2 receptor and at human CB1 receptor were -1% and 34%, respectively.

For `O=C(Nc1cnc(OCC(F)(F)F)c(-c2ccc(Cl)cc2)c1)c1cccnn1` [Example 17, 3-pyridazinecarboxylic acid[5-(4-chloro-phenyl)-6-(2,2,2-trifluoro-ethoxy)-pyridin-3-yl]-amide], the EC50 with ABCA1 protein worked out at 2.31 µM. Besides, the inhibition at 10 µM on human CB2 receptor was -3%; on human CB1 receptor, 16%.
